Like-named read-outs stand apart in the source and are kept apart here.
Columns and labels:
KYSE450TR cells [1] = test: Annexin V/PI flow cytometry for apoptosis, KYSE450TR; type: cell-based, human; details: 48 h
Protocol: Cell-apoptosis analysis was carried out by flow cytometry using the Annexin V/PI apoptosis methods. […] Cells were harvested and incubated with 250 μL of 1 × Annexin V binding buffer containing 5 μL PI and 5 μL FITC Annexin V (final concentration 1.8 μg/ml, Biolegend (cat: 640945) for 15 min at room temperature in dark. 200 µL of 1 × binding buffer was added for flow cytometry analysis (BD FACSCalibur™ Flow Cytometer).

KYSE450TR cells [2] = test: Cell cycle analysis by flow cytometry, KYSE450TR; type: cell-based, human; details: 24 h, icotinib at 8 μM, 3l at 8 μM
Protocol: (§1) KYSE450/KYSE450TR cells were plated in 6-well plates with a density of 1×10^5 cells/well and cultured overnight. […] Trypsinization treatment and the cells were collected by centrifugation. The cell pellet was re-suspended in 70% ethanol at −20°C for at least 3 h. The cells were washed with PBS and were re-suspended in 250 μL of 0.6% tricine with Renease A for 1 h, then stained in PI (final concentration 1.8 μg/ml, Biolegend cat: 640945) for 15 min in dark. Cells were retransferred to the BD FACSCalibur™ Flow Cytometer. All analyses were performed with FlowJo software v105.3.6.

[3] = test system: EGFR-TK pathway in KYSE450TR cells; test: Western blot of EGFR-TK pathway proteins, KYSE450TR; type: cell-based, human; details: 3 μM, vs control
Protocol: (§2) Cells treated with 1% DMSO were used as control. Then the cells were harvested and total proteins were extracted. Total proteins were separated by 12% SDS polyacrylamide gel electrophoresis and transferred onto PVDF membranes. The membrane was blocked for 1 h, then incubated overnight with a 1 : 1000 dilution of anti-EGFR, anti-p-EGFR (Tyr1068/Tyr1086), anti-Erk1/2, and anti-p-Erk1/2 (Thr202/Tyr204), or 1 : 3000 dilution of anti-GAPDH primary antibody at 4°C. 1 : 3000 anti-rabbit secondary antibodies incubated for 2 h at room temperature. Protein bands were developed by chemiluminescence.

KYSE450 cells [4] = test: MTT assay, KYSE450; type: cell-based, human; details: for IC50: Homo sapiens, KYSE-450
Procedure, shortened: (§3)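 MTT read-out at 490 nm after 48 h treatment with 0–50 μM compound, applied one day after seeding 2,200–2,500 cells/well; five wells per concentration, 0.1% DMSO as control. Culture in RPMI-1640/10% FBS, with 100 nm/L paclitaxel kept in the taxol-resistant lines.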

KYSE70TR cells = test: MTT assay, taxol-resistant KYSE70TR; type: cell-based, human; details: for blank-corrected absorbance 490 nm relative to control (fraction) / inhibition (1 minus fraction of control): 70TR
From the text: (§4) The human cancer cells (H1650, H1975, KYSE70, KYSE410 and KYSE450) were purchased from the Type Culture Collection of the Chinese Academy of Sciences (Shanghai, China). The human immortalized normal esophageal epithelial cell line SHEE was donated by Dr. Enmin Li from the Laboratory of Tumor Pathology (Shantou University Medical College, Shantou, Guangdong, China). Drug-resistant cells (H1650TR, H1975OR, KYSE70TR, KYSE410TR and KYSE450TR) were induced by China-US (Henan) Hormel Cancer Institute. The cellswere cultured in RPMI-1640 complete growth medium containing 100 U/mL penicillin-streptomycin and 10% FBS. Based on the above medium formula, 100 nm/L paclitaxel was added in taxol-resistant cells, 100 nm/L gefitinib was added in gefitinib-resistant cells. The cells were incubated at 37 °C in an atmosphere containing 5% of CO2. The compounds were dissolved in DMSO to make a 50 mM stock solution and were diluted to the concentration of working solutions with complete growth medium before administration.
(§5) Cells were seeded in 96-well plates with 2,200–2,500 cells/well in100 μL. One day after seeding, test compounds with the concentration between 0 and 50 μM were added with 0.1% DMSO as control. Five multiple wells for each concentration. […] The absorbance at 490 nm was measured using a microplate reader (Thermo).

KYSE450 cells [5] = test: Cell cycle analysis by flow cytometry, KYSE450; type: cell-based, human; details: KYSE450, 24 h; icotinib at 2 μM, 3l at 8 μM
Protocol: as §1

EGFR = target: T1, EGFR (Homo sapiens, UniProt P00533); test: EGFR kinase assay (ELISA); type: biochemical; details: 25°C
T1 construct: purchased Active MOTIF
Protocol: Kinase inhibitory activities of the compounds were evaluated using the Protein Tyrosine Kinase Assay Kit (SignalChem (British Columbia, Canada)). The kinase enzyme of EGFR was purchased from Active MOTIF. The ELISA experiments were carried out according the instructions of the kit. Active kinases were incubated with indicated compounds in 1 × reaction buffer containing 20 μM substrate at 25°C for 1 h and 2 h, respectively. The absorbance was read with a multimode plate reader (PerkinElmer, United States) at 450 nm.

KYSE410TR cells = test: MTT assay, taxol-resistant KYSE410TR; type: cell-based, human; details: for blank-corrected absorbance 490 nm relative to control (fraction) / inhibition (1 minus fraction of control): 410TR
From the text: as §4, §5

H1650 cells = test: MTT assay for cell proliferation and cytotoxicity, H1650; type: cell-based; details: Homo sapiens, NCI-H1650, 48 h, H1650, n = 5
Procedure, shortened: as §3

[6] = test system: EGFR-TK pathway in KYSE450 cells; test: Western blot of EGFR-TK pathway proteins, KYSE450; type: cell-based, human; details: KYSE450, 3 μM
Protocol: as §2

H1975OR cells = test: MTT assay, osimertinib-resistant H1975OR; type: cell-based; details: Homo sapiens, NCI-H1975, 48 h, osimertinib-resistant H1975OR, value in parentheses in H1975 column, read-out: IC50 48 h H1975OR (data in parentheses) (converted)
From the text: as §4, §5

T1 sequence (P00533 25-1210): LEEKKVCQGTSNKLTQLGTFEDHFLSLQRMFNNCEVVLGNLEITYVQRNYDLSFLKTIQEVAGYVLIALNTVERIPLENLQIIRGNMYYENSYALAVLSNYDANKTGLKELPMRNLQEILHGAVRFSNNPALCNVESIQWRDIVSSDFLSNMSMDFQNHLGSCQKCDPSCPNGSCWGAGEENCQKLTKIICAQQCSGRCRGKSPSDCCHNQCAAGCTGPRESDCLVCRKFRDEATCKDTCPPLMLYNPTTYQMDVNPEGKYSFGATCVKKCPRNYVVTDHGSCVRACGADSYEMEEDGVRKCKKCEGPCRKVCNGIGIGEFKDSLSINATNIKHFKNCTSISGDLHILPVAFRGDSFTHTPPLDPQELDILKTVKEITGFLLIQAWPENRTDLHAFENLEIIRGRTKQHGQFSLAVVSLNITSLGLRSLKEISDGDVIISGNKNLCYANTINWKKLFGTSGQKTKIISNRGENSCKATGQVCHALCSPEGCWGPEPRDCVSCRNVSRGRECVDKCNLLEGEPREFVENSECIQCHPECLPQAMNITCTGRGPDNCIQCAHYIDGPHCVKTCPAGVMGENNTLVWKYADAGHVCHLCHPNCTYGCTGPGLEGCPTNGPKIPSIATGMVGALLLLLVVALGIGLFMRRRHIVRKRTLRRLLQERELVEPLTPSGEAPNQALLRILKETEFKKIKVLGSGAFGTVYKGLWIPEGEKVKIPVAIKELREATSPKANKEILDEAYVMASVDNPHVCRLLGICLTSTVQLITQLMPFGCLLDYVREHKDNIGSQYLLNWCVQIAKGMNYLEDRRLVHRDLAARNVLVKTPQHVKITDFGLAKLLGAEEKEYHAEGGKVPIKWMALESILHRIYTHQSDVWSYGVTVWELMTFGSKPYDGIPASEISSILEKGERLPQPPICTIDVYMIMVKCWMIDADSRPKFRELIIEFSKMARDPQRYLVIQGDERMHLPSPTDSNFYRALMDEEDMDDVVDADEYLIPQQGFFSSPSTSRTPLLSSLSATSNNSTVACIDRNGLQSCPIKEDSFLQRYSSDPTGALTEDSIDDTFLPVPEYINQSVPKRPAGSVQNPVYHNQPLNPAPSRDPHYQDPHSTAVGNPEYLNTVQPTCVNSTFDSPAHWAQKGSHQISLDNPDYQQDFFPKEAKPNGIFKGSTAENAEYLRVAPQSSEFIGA

## FC(F)(F)c1ccc(-n2cc(-c3cccc(Nc4ncnc5cc6c(cc45)OCCOCCOCCO6)c3)nn2)cc1 [compound 3l]
KYSE450TR cells [1]; 5 μM
  proportion of apoptotic cells: 32.12%
KYSE450TR cells [1]; 10 μM
  proportion of apoptotic cells: 83.69%
KYSE450TR cells [2]
  cell cycle phase in which cells were arrested: G2/M phase
[3]
  P-EGFR (Tyr1068) protein levels: lower than the control at 1 and 2 h
  P-ERK1/2 (Thr202/Tyr204) protein levels: lower than the control at 6 h
KYSE450 cells [4]; KYSE450, MTT, 490 nm, read-out: IC50
  IC50: 4 µM
KYSE450 cells [4]; MTT, 48 h, KYSE450, n = 5, read-out: IC50 48 h KYSE450
  IC50: 3.4 ± 0.16 µM
KYSE450 cells [4]; KYSE450, concentration 2
  blank-corrected absorbance 490 nm relative to control (fraction): 0.4268
  inhibition (1 minus fraction of control): 0.5732
KYSE450 cells [4]; KYSE450, concentration 4
  blank-corrected absorbance 490 nm relative to control (fraction): 0.4691
  inhibition (1 minus fraction of control): 0.5309
KYSE450 cells [4]; KYSE450, concentration 8
  blank-corrected absorbance 490 nm relative to control (fraction): 0.05646
  inhibition (1 minus fraction of control): 0.9435
KYSE70TR cells; concentration 3
  blank-corrected absorbance 490 nm relative to control (fraction): 0.722
  inhibition (1 minus fraction of control): 0.278
KYSE70TR cells; concentration 6
  blank-corrected absorbance 490 nm relative to control (fraction): 0.41
  inhibition (1 minus fraction of control): 0.59
KYSE70TR cells; concentration 12
  blank-corrected absorbance 490 nm relative to control (fraction): 0.2379
  inhibition (1 minus fraction of control): 0.7621
KYSE70TR cells; Homo sapiens, MTT, 48 h, taxol-resistant KYSE70TR, value in parentheses, read-out: IC50 48 h KYSE70TR (data in parentheses) (converted)
  IC50: 5.13 µM
KYSE450 cells [5]
  cell cycle phase in which cells were arrested: G2/M phase
EGFR; incubation 1 h, read-out: IC50 EGFR 1 h
  IC50: 0.42 µM
EGFR; incubation 2 h, read-out: IC50 EGFR 2 h
  IC50: 1.67 µM
KYSE410TR cells; concentration 4
  blank-corrected absorbance 490 nm relative to control (fraction): 0.5568
  inhibition (1 minus fraction of control): 0.4432
KYSE410TR cells; concentration 8
  blank-corrected absorbance 490 nm relative to control (fraction): 0.3771
  inhibition (1 minus fraction of control): 0.6229
KYSE410TR cells; concentration 16
  blank-corrected absorbance 490 nm relative to control (fraction): 0.2345
  inhibition (1 minus fraction of control): 0.7655
KYSE410TR cells; Homo sapiens, MTT, 48 h, taxol-resistant KYSE410TR, value in parentheses, read-out: IC50 48 h KYSE410TR (data in parentheses) (converted)
  IC50: 5.3 µM
H1650 cells
  IC50: 4.4 ± 0.32 µM
[6]
  EGFR (Tyr1068) protein levels, 3l group compared with icotinib group: no obvious difference
[6]; vs control
  ERK1/2 protein levels: lower than the control at 0.5, 1, 2, 3, and 6 h
  P-EGFR (Tyr1068) protein levels: lower than the control at 1 h
  P-EGFR (Tyr1086) protein levels: lower than the control at 0.5, 1, 2, 3, and 6 h
  P-ERK1/2 (Thr202/Tyr204) protein levels: lower than the control at 0.5, 1, 2, 3, and 6 h
H1975OR cells
  IC50: 9.73 µM

From PMC9709406 (Frontiers in Pharmacology, 2022)
